Laboratory results reported in patent US4539208A, “Combination of thienamycin-type antibiotics with dipeptidase inhibitors” (Merck & Co., Inc., priority 1981, dated 1985).

target: T1, renal dipeptidase (E.C.3.4.13.11) (Sus scrofa, UniProt P22412); assay: Inhibition of GDP (glycyldehydrophenylalanine) hydrolysis by solubilized renal dipeptidase; assay type: biochemical, hog (pig) kidney; settings: not given
T1 construct: solubilized preparation of dipeptidase isolated from hog kidneys; from tissue; host or cells: hog (pig) kidney
T1 sequence (P22412 17-409): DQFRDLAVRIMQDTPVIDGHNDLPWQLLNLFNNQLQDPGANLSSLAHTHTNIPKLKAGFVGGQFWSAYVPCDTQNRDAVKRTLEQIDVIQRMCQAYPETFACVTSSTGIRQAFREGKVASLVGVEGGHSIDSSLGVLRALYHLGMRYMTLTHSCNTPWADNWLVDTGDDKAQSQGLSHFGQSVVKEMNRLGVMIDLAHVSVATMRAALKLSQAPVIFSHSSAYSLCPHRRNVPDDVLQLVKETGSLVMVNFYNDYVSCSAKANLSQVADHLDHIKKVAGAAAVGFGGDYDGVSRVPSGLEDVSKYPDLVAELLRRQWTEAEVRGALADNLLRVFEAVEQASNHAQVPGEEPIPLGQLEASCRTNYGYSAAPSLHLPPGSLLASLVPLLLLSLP
Description: This measured the ability of compounds to inhibit hydrolysis of glycyldehydrophenylalanine (GDP) by a solubilized preparation of dipeptidase isolated from hog kidneys. The procedure is as follows: to a 1 ml. system containing 50 mM "MOPS" (3-(N-morpholino)propanesulfonic acid) buffer, pH 7.1, is added 5 μg of lyophilized enzyme, and the test compound at a final concentration of 0.1 mM. After a five minute incubation at 37° C., GDP is added to a final concentration of 0.05 mM. Incubation is continued for 10 minutes, at 37° C. and hydrolysis of GDP is measured by the change in optical density with time at 275 nm. Inhibition of the enzyme is gauged by comparison to a standard run containing no inhibitor and is expressed as the inhibitor binding constant, Ki.
A 1 ml. system of 50 mM "MOPS" buffer, pH 7.1, is used. To this is added 5 μg of the pig renal enzyme and an amount of the test compound to bring its final concentration to 0.1 mM. After a five minute incubation at 37° C., an amount of GDP is added to bring its final concentration to 0.05 mM. The system is again incubated for 10 minutes, at 37° C. Hydrolysis of GDP is measured by its change in optical density with time at 275 nm. Inhibition of the enzyme is gauged by comparison to a standard run containing no inhibitor and is presented as percent inhibition.

SMILES	Ki
C/C=C(\NC(=O)C1CC1)C(=O)O [Compound 10, Z-2-cyclopropylcarboxamido-2-butenoic acid]	9000 nM
CN(C)C(=N)NCCCCC/C=C(\NC(=O)C1CC1(C)C)C(=O)O (stereo not shown) [Compound 16]	890 nM
CC1(C)CC1C(=O)N/C(=C\CC1CCCO1)C(=O)O (stereo not shown) [Compound 65]	390 nM
CC1(C)CC1C(=O)N/C(=C\Cc1ccccc1)C(=O)O (stereo not shown) [Compound 59]	440 nM
CCCCCCC/C=C(\NC(=O)C1CC1(C)C)C(=O)O (stereo not shown) [Compound 57]	92 nM
C/C=C(\NC(=O)CCCCCl)C(=O)O [Compound 36, Z-2-(5-chlorovaleramido)-2-butenoic acid]	20000 nM
CCCCC/C=C(\NC(=O)C1CC1(Cl)Cl)C(=O)O (stereo not shown) [Compound 12]	59 nM
C/C=C(\NC(=O)CCCCC)C(=O)O [Compound 28, Z-2-hexanamido-2-butenoic acid]	39000 nM
CC(C)/C=C(\NC(=O)C1CC1(C)C)C(=O)O (stereo not shown) [Compound 41]	1600 nM
CC1(C)CC1C(=O)N/C(=C\CCC(=O)O)C(=O)O (stereo not shown) [Compound 51]	145 nM
CCCCCC/C=C(\NC(=O)C1CC1(C)C)C(=O)O (stereo not shown) [Compound 56]	149 nM

same assay, conditions: 10^-4 M inhibitor; GDP 0.05 mM; pH 7.1; 37° C.

SMILES	inhibition at 100 µM	% Inhibition at 10^-4 M
C/C=C(\NC(=O)C(CCC)CCC)C(=O)O [Compound 31, Z-2-di-n-propylacetamido-2-butenoic acid]	13%	
C/C=C(\NC(=O)CC(C)CC)C(=O)O (stereo not shown) [Compound 11]	82%	
C/C=C(\NC(=O)CC(C)(C)C)C(=O)O [Compound 18, Z-2-t-butylacetamido-2-butenoic acid]	75%	
CC(C)CC/C=C(\NC(=O)C1CC1(C)C)C(=O)O (stereo not shown) [Compound 63]	98%	
CC1(C)CC1C(=O)N/C(=C\c1ccccc1)C(=O)O (stereo not shown) [Compound 46]	100%	
C/C=C(\NC(=O)C1CC1CC)C(=O)O (stereo not shown) [Compound 43]	96%	
CC1(C)CC1C(=O)N/C(=C\CCc1ccccc1)C(=O)O (stereo not shown) [Compound 53]	96%	
CC/C=C(\NC(=O)C1CC1(C)C)C(=O)O (stereo not shown) [Compound 1]		98%
CC/C=C(\NC(=O)C1CC1(C)C)C(=O)O (stereo not shown) [Compound 45]	98%	
COCC/C=C(\NC(=O)C1CC1(C)C)C(=O)O (stereo not shown) [Compound 61]	98%	
C/C=C(\NC(=O)C1CC1(CC)CC)C(=O)O (stereo not shown) [Compound 42]	98%	
C/C=C(\NC(=O)CCC)C(=O)O [Compound 20, Z-2-butyramido-2-butenoic acid]	69%	
C/C=C(\NC(=O)CC(C)CC(C)(C)C)C(=O)O (stereo not shown) [Compound 5]	81%	
C/C=C(\NC(=O)C1C(C)C1C)C(=O)O (stereo not shown) [Compound 6]	83%	
CC(C)C/C=C(\NC(=O)C1CC1(C)C)C(=O)O (stereo not shown) [Compound 48]	97%	
C/C=C(\NC(=O)C1CC1)C(=O)O [Compound 10, Z-2-cyclopropylcarboxamido-2-butenoic acid]	97%	
CC1(C)CC1C(=O)N/C(=C\CCS(C)(=O)=O)C(=O)O (stereo not shown) [Compound 55]	96%	
C/C=C(\NC(=O)CCC1CCCCC1)C(=O)O [Compound 27]	54%	
C/C=C(\NC(=O)C1CCCC1)C(=O)O [Compound 24]	59%	

SMILES	inhibition at 100 µM	% Inhibition at 10^-4 M
C/C=C(\NC(=O)CCCCCBr)C(=O)O [Compound 35]	70%	
CCCC/C=C(\NC(=O)C1CC1(C)C)C(=O)O (stereo not shown) [Compound 49]	100%	
CC1(C)CC1C(=O)N/C(=C\Cc1ccccc1)C(=O)O (stereo not shown) [Compound 59]	98%	
C/C=C(\NC(=O)C(C)C)C(=O)O [Compound 32]	31%	
C/C=C(\NC(=O)C1CC1C)C(=O)O (stereo not shown) [Compound 3]	92%	
CCC/C=C(\NC(=O)C1CC1(C)C)C(=O)O (stereo not shown) [Compound 47]	98%	
C/C=C(\NC(=O)C1CC1(C)C(C)C)C(=O)O (stereo not shown) [Compound 44]	95%	
CCCCCCC/C=C(\NC(=O)C1CC1(C)C)C(=O)O (stereo not shown) [Compound 57]	99%	
C/C=C(\NC(=O)CC(C)CCOC)C(=O)O (stereo not shown) [Compound 34]	88%	
C/C=C(\NC(=O)CCCCCl)C(=O)O [Compound 36, Z-2-(5-chlorovaleramido)-2-butenoic acid]	64%	
C/C=C(\NC(=O)CCCC1CCCCC1)C(=O)O [Compound 21]	68%	
C/C=C(\NC(=O)C1CCC1)C(=O)O [Compound 8]	80%	
CCCCC/C=C(\NC(=O)C1CC1(C)C)C(=O)O (stereo not shown) [Compound 50]	100%	
CC/C=C(\NC(=O)CC(C)C)C(=O)O [Compound 4]	87%	
CCCCC/C=C(\NC(=O)CC(C)C)C(=O)O [Compound 39, Z-2-isovaleramido-2-octenoic acid]	95%	
C/C=C(\NC(=O)CCCCCC)C(=O)O [Compound 29]	49%	
C/C=C(\NC(=O)C1CC1(C)CC)C(=O)O (stereo not shown) [Compound 40]	100%	
CC1(C)CC1C(=O)N/C(=C\CCCC(=O)O)C(=O)O (racemic) [Compound 64]	99%	
CSCC/C=C(\NC(=O)C1CC1(C)C)C(=O)O (stereo not shown) [Compound 54]	99%	

SMILES	inhibition at 100 µM	% Inhibition at 10^-4 M
C/C=C(\NC(=O)C1CC1(C)C)C(=O)O (single isomer, unassigned; (+)) [Compound 2a, (+)-Z-2-(2,2-dimethylcyclopropanecarboxamido)-2-butenoic acid]	100%	
C/C=C(\NC(=O)CCCCCCC)C(=O)O [Compound 19, Z-2-octanamido-2-butenoic acid]	72%	
C/C=C(\NC(=O)C1CC1C(C)(C)C)C(=O)O (stereo not shown) [Compound 38]	90%	
C/C=C(\NC(=O)CCCCC(C)C)C(=O)O [Compound 25, Z-2-(6-methylheptanamido)-2-butenoic acid]	57%	
C/C=C(\NC(=O)CCC1CCCC1)C(=O)O [Compound 26]	56%	
C/C=C(\NC(=O)CCCC)C(=O)O [Compound 23, Z-2-valeramido-2-butenoic acid]	64%	
O=C(O)CC/C=C(\NC(=O)C1CC1)C(=O)O [Compound 33]	90%	
C/C=C(\NC(=O)CCCCC)C(=O)O [Compound 28, Z-2-hexanamido-2-butenoic acid]	54%	
CC(C)/C=C(\NC(=O)C1CC1(C)C)C(=O)O (stereo not shown) [Compound 41]	96%	
C/C=C(\NC(=O)C(CC)CCCC)C(=O)O (stereo not shown) [Compound 30, Z-2-(2-Ethylhexanamido)-2-butenoic acid]	33%	
CC1(C)CC1C(=O)N/C(=C\CC1CCCCC1)C(=O)O (stereo not shown) [Compound 52]	100%	
C/C=C(\NC(=O)CCCc1ccccc1)C(=O)O [Compound 37]	72%	
C/C=C(\NC(=O)CC1CC1)C(=O)O [Compound 22]	64%	
CC1(C)CC1C(=O)N/C(=C\CCC(=O)O)C(=O)O (stereo not shown) [Compound 51]	98%	
C/C=C(\NC(=O)C1CC1(C)C)C(=O)O (racemic) [Compound 2, Z-2-(2,2-dimethylcyclopropanecarboxamido)-2-butenoic acid]	98%	
C/C=C(\NC(=O)CC1CCC1)C(=O)O [Compound 9]	83%	
C/C=C(\NC(=O)CC(C)C)C(=O)O [Compound 7, Z-2-isovaleramido-2-butenoic acid]	91%	
CCCCCCCCCC/C=C(\NC(=O)C1CC1(C)C)C(=O)O (stereo not shown) [Compound 58]	96%	
CCCCCC/C=C(\NC(=O)C1CC1(C)C)C(=O)O (stereo not shown) [Compound 56]	98%	

same assay, conditions: racemate resolved; dextrorotatory isomer has S-configuration

SMILES	activity of resolved isomers
CCCCC/C=C(\NC(=O)C1CC1(C)C)C(=O)O (racemic) [Z-2-(2,2-dimethylcyclopropanecarboxamido)-2-octenoic acid]	The activity resides in the dextrorotatory isomer

system: Staphalococcus aureus; assay: Systemic efficacy of thienamycin with co-administered inhibitor, Staphylococcus aureus infection in mouse; assay type: in vivo; settings: coadministered with thienamycin

SMILES	enhancement of systemic antibacterial activity of thienamycin
C/C=C(\NC(=O)CC(C)C)C(=O)O [Compound 7, Z-2-isovaleramido-2-butenoic acid]	enhanced approximately three-fold
